PubChem BioAssay (NCI)
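Assay format: 96-well plates, 48-hour exposure. TGI denotes the concentration required for complete inhibition of growth.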

Experiments:
Test in all cases: NCI tumour cell line growth inhibition, 48 h
[1] = test system: 786-0 renal
[2] = test system: A498 renal
[3] = test system: A549 NSCLC
[4] = test system: ACHN renal
[5] = test system: CAKI-1 renal
[6] = test system: CCRF-CEM leukemia
[7] = test system: COLO 205 colon
[8] = test system: DLD-1 colon
[9] = test system: DMS 114 small cell lung
[10] = test system: DMS 273 small cell lung
[11] = test system: EKVX NSCLC
[12] = test system: HCC-2998 colon
[13] = test system: HCT-116 colon
[14] = test system: HCT-15 colon
[15] = test system: HL-60(TB) leukemia
[16] = test system: HOP-18 NSCLC
[17] = test system: HOP-62 NSCLC
[18] = test system: HOP-92 NSCLC
[19] = test system: HT29 colon
[20] = test system: IGROV1 ovarian
[21] = test system: K-562 leukemia
[22] = test system: KM12 colon
[23] = test system: KM20L2 colon
[24] = test system: LOX IMVI melanoma
[25] = test system: LXFL 529 NSCLC
[26] = test system: M14 melanoma
[27] = test system: M19-MEL melanoma
[28] = test system: MALME-3M melanoma
[29] = test system: MCF7 breast
[30] = test system: MOLT-4 leukemia
[31] = test system: NCI-H226 lung
[32] = test system: NCI-H23 lung
[33] = test system: NCI-H460 lung
[34] = test system: NCI-H522 lung
[35] = test system: NCI/ADR-RES ovarian
[36] = test system: OVCAR-3 ovarian
[37] = test system: OVCAR-4 ovarian
[38] = test system: OVCAR-5 ovarian
[39] = test system: OVCAR-8 ovarian
[40] = test system: P388 leukemia
[41] = test system: P388/ADR leukemia
[42] = test system: RPMI-8226 leukemia
[43] = test system: RXF 393 renal
[44] = test system: SF-268 CNS
[45] = test system: SF-295 CNS
[46] = test system: SF-539 CNS
[47] = test system: SK-MEL-2 melanoma
[48] = test system: SK-MEL-28 melanoma
[49] = test system: SK-MEL-5 melanoma
[50] = test system: SK-OV-3 ovarian
[51] = test system: SN12C renal
[52] = test system: SN12K1 renal
[53] = test system: SNB-19 CNS
[54] = test system: SNB-75 CNS
[55] = test system: SNB-78 CNS
[56] = test system: SR leukemia
[57] = test system: SW-620 colon
[58] = test system: U251 CNS
[59] = test system: UACC-257 melanoma
[60] = test system: UACC-62 melanoma
[61] = test system: UO-31 renal
[62] = test system: RXF-631 renal
[63] = test system: TK-10 renal
[64] = test system: XF 498 CNS

Which results are given for `CNC(=O)OCc1nc(SC(C)C)n(C)c1COC(=O)NC`?
TGI [1]: > 100 µM; TGI [2]: > 100 µM; TGI [3]: > 100 µM; TGI [4]: > 100 µM; TGI [5]: > 100 µM; TGI [6]: > 88 µM; TGI [7]: > 100 µM; TGI [8]: > 100 µM; TGI [9]: > 100 µM; TGI [10]: > 100 µM; TGI [11]: > 100 µM; TGI [12]: > 100 µM; TGI [13]: > 100 µM; TGI [14]: > 100 µM; TGI [15]: > 100 µM; TGI [16]: > 100 µM; TGI [17]: > 100 µM; TGI [18]: > 100 µM; TGI [19]: > 100 µM; TGI [20]: > 100 µM; TGI [21]: > 100 µM; TGI [22]: > 100 µM; TGI [23]: > 100 µM; TGI [24]: > 100 µM; TGI [25]: > 100 µM; TGI [26]: > 100 µM; TGI [27]: > 100 µM; TGI [28]: > 100 µM; TGI [29]: > 100 µM; TGI [30]: > 86.6 µM; TGI [31]: > 100 µM; TGI [32]: > 100 µM; TGI [33]: > 100 µM; TGI [34]: > 100 µM; TGI [35]: > 100 µM; TGI [36]: > 100 µM; TGI [37]: > 100 µM; TGI [38]: > 100 µM; TGI [39]: > 100 µM; TGI [40]: > 100 µM; TGI [41]: > 100 µM; TGI [42]: > 100 µM; TGI [43]: > 100 µM; TGI [44]: > 100 µM; TGI [45]: > 100 µM; TGI [46]: > 100 µM; TGI [47]: > 100 µM; TGI [48]: > 100 µM; TGI [49]: > 100 µM; TGI [50]: > 100 µM; TGI [51]: > 100 µM; TGI [52]: > 100 µM; TGI [53]: > 100 µM; TGI [54]: > 100 µM; TGI [55]: > 100 µM; TGI [56]: > 100 µM; TGI [57]: > 100 µM; TGI [58]: > 100 µM; TGI [59]: > 100 µM; TGI [60]: > 100 µM; TGI [61]: > 100 µM

What does the source list for `O/N=C1/C(=C/c2ccc(F)cc2)CCCC1C(NO)c1ccc(F)cc1` (stereo not given)?
TGI [1]: > 100 µM; TGI [2]: > 100 µM; TGI [3]: > 100 µM; TGI [4]: > 100 µM; TGI [5]: > 100 µM; TGI [6]: > 100 µM; TGI [7]: > 100 µM; TGI [8]: > 100 µM; TGI [9]: > 100 µM; TGI [10]: > 100 µM; TGI [11]: > 100 µM; TGI [12]: > 100 µM; TGI [13]: > 100 µM; TGI [14]: > 100 µM; TGI [15]: 49.1 µM; TGI [16]: 87.3 µM; TGI [17]: > 100 µM; TGI [19]: 45.2 µM; TGI [20]: > 100 µM; TGI [21]: > 100 µM; TGI [22]: 52.6 µM; TGI [23]: 72.2 µM; TGI [25]: > 100 µM; TGI [26]: > 100 µM; TGI [27]: > 100 µM; TGI [28]: > 100 µM; TGI [30]: 55.3 µM; TGI [32]: 51.7 µM; TGI [33]: > 100 µM; TGI [34]: 42.5 µM; TGI [36]: 72.8 µM; TGI [37]: > 100 µM; TGI [39]: > 100 µM; TGI [42]: 49.8 µM; TGI [43]: 86.6 µM; TGI [62]: > 100 µM; TGI [44]: > 100 µM; TGI [45]: > 100 µM; TGI [46]: > 100 µM; TGI [47]: > 100 µM; TGI [48]: > 100 µM; TGI [49]: 39.2 µM; TGI [50]: > 100 µM; TGI [51]: 43.6 µM; TGI [53]: > 100 µM; TGI [54]: > 100 µM; TGI [55]: > 100 µM; TGI [57]: > 100 µM; TGI [63]: > 100 µM; TGI [58]: > 100 µM; TGI [59]: 64.5 µM; TGI [60]: > 100 µM; TGI [61]: 72.5 µM; TGI [64]: > 100 µM
